SMILES strings stand for the structures.

The target in the first assay is T1, apelin receptor (APJ) (Homo sapiens, UniProt P35414).
T1 sequence (P35414 1-380): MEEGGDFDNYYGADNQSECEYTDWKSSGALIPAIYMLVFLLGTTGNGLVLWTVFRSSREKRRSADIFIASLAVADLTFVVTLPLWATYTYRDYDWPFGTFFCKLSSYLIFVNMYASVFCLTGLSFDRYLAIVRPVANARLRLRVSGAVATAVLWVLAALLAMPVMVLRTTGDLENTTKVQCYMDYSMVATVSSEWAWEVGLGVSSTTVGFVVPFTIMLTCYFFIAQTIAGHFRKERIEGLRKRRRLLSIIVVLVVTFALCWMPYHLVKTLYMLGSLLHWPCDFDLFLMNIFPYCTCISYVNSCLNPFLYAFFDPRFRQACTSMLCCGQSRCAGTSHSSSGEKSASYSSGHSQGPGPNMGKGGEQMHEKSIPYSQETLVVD
The experiment in a line: In vitro apelin agonist activity (methods of Giddings et al., Apelin-13 as positive control). The class given is cell-based. The settings on record: EC50 (nM) Ave, in vitro apelin agonist activity, methods of Giddings et al., Apelin-13 as positive control. The text has this:
Characterization of the Apelin Agonist Activity of the Compounds
1:39-47, the contents of which are hereby incorporated by reference in its entirety. Using the methods described in Giddings et al. and Apelin-13 as a positive control.
With `CN(C[C@@H](CC(=O)NC1CCC1)NC(=O)c1cc(-c2ccccc2C(F)(F)F)n(C2CCCC2)n1)C1CCCCC1` [compound 547], the EC50 (commonly the concentration that produces a half-maximal response) was found to be 5120 nM.

The assay is the same for the next values; noted with them: in vitro apelin agonist activity, methods of Giddings et al., Apelin-13 as positive control; read-out: EC50 (nM) Ave.
Regarding `O=C(O)C[C@H](CCN1CC(F)(F)C1)NC(=O)c1cc(-c2ccccc2C(F)(F)F)n(C2CCCC2)n1` [compound 534, (3S)-3-({1-cyclopentyl-5-[2-(trifluoromethyl)phenyl]-1H-pyrazol-3-yl}formamido)-5-(3,3-difluoroazetidin-1-yl)pentanoic acid], the EC50 came out at 388 nM.
On the same count and under the same terms, the figure for `O=C(C[C@H](CCN1CC(F)(F)C1)NC(=O)c1cc(-c2ccccc2C(F)(F)F)n(C2CCCC2)n1)NC1CCC1` [compound 535, (3S)-N-cyclobutyl-3-({1-cyclopentyl-5-[2-(trifluoromethyl)phenyl]-1H-pyrazol-3-yl}formamido)-5-(3,3-difluoroazetidin-1-yl)pentanamide] is 32 nM; for `O=C(C[C@H](CCNC(=O)C1CCCC1)NC(=O)c1cc(-c2ccccc2C(F)(F)F)n(C2CCCC2)n1)NC1CCC1` [compound 536, (3S)-N-cyclobutyl-3-({1-cyclopentyl-5-[2-(trifluoromethyl)phenyl]-1H-pyrazol-3-yl}formamido)-5-(cyclopentylformamido)pentanamide] it is 39 nM; for `CC(F)(F)c1ccccc1-c1cc(C(=O)N[C@@H](CCN2CCC(F)(F)C2)CC(=O)O)nn1C1CCCC1` [compound 537, (3S)-3-({1-cyclopentyl-5-[2-(1,1-difluoroethyl)phenyl]-1H-pyrazol-3-yl}formamido)-5-(3,3-difluoropyrrolidin-1-yl)pentanoic acid] it is 16 nM.
The same measure, in the same setting: the figure for `O=C(O)C[C@H](CCNC(=O)C1CCCC1)NC(=O)c1cc(-c2ccccc2C(F)(F)F)n(C2CCCC2)n1` [compound 538, (3S)-3-({1-cyclopentyl-5-[2-(trifluoromethyl)phenyl]-1H-pyrazol-3-yl}formamido)-5-(cyclopentylformamido)pentanoic acid] is 544 nM; for `O=C(C[C@H](CCNC(=O)C1COC1)NC(=O)c1cc(-c2ccccc2C(F)(F)F)n(C2CCCC2)n1)NC1CCC1` [compound 539, (3S)-N-cyclobutyl-3-({1-cyclopentyl-5-[2-(trifluoromethyl)phenyl]-1H-pyrazol-3-yl}formamido)-5-(oxetan-3-ylformamido)pentanamide] it is 176 nM.
Turning to `NS(=O)(=O)C[C@H](CC(=O)N1CCCC(F)(F)C1)NC(=O)c1cc(-c2ccccc2C(F)(F)F)n(C2CCCC2)n1` [compound 540, 1-cyclopentyl-N-[(2S)-4-(3,3-difluoropiperidin-1-yl)-4-oxo-1-sulfamoylbutan-2-yl]-5-[2-(trifluoromethyl)phenyl]-1H-pyrazole-3-carboxamide], the EC50 was 1380 nM.
On the same count and under the same terms, next, `O=C(N[C@@H](CC(=O)N1CCCC(F)(F)C1)CS(=O)(=O)NC1CCC1)c1cc(-c2ccccc2C(F)(F)F)n(C2CCCC2)n1` [compound 541, N-[(2S)-1-(cyclobutylsulfamoyl)-4-(3,3-difluoropiperidin-1-yl)-4-oxobutan-2-yl]-1-cyclopentyl-5-[2-(trifluoromethyl)phenyl]-1H-pyrazole-3-carboxamide]: 1060 nM; `COCCN(C)C(=O)[C@H](CCc1ccccc1)NC(=O)c1cc(-c2ccccc2C(F)(F)F)n(C2CCCC2)n1` [compound 542, (2S)-2-({1-cyclopentyl-5-[2-(trifluoromethyl)phenyl]-1H-pyrazol-3-yl}formamido)-N-(2-methoxyethyl)-N-methyl-4-phenylbutanamide]: 105 nM; `O=C(O)C[C@@H](NC(=O)c1cc(-c2ccccc2C(F)(F)F)n(C2CCCC2)n1)C(=O)NC1CCCCC1` [compound 544, (3R)-3-(cyclohexylcarbamoyl)-3-({1-cyclopentyl-5-[2-(trifluoromethyl)phenyl]-1H-pyrazol-3-yl]formamido)propanoic acid]: 205 nM.
For the compound `O=C(O)C[C@H](COc1ccc(F)cc1)NC(=O)c1cc(-c2ccccc2C(F)(F)F)n(C2CCCC2)n1` [compound 545, (3R)-3-({1-cyclopentyl-5-[2-(trifluoromethyl)phenyl]-1H-pyrazol-3-yl}formamido)-4-(4-fluorophenoxy)butanoic acid], the EC50 is 1230 nM.
The same measure, in the same setting: next, `O=C(C[C@H](COc1ccc(F)cc1)NC(=O)c1cc(-c2ccccc2C(F)(F)F)n(C2CCCC2)n1)NC1CCC1` [compound 546, (3R)-N-cyclobutyl-3-({1-cyclopentyl-5-[2-(trifluoromethyl)phenyl]-1H-pyrazol-3-yl}formamido)-4-(4-fluorophenoxy)butanamide]: 114 nM; `O=C(O)C[C@H](CCNC1CC(F)(F)C1)NC(=O)c1cc(-c2ccccc2C(F)(F)F)n(C2CCCC2)n1` [compound 548, (3S)-3-({1-cyclopentyl-5-[2-(trifluoromethyl)phenyl]-1H-pyrazol-3-yl}formamido)-5-[(3,3-difluorocyclobutyl)amino]pentanoic acid]: 255 nM.
On the same count and under the same terms, the figure for `CC1(NC(=O)C[C@H](CC(=O)N2CCCCC2)NC(=O)c2cc(-c3ccccc3C(F)(F)F)n(C3CCCC3)n2)COC1` [compound 550, (3R)-3-({1-cyclopentyl-5-[2-(trifluoromethyl)phenyl]-1H-pyrazol-3-yl}formamido)-N-(3-methyloxetan-3-yl)-5-oxo-5-(piperidin-1-yl)pentanamide] is 8680 nM.
For `O=C(O)C[C@H](CCN1CCCC(F)(F)C1)NC(=O)c1cc(-c2ccccc2C(F)(F)F)n(C2CCC2)n1` [compound 552, (3S)-3-({1-cyclobutyl-5-[2-(trifluoromethyl)phenyl]-1H-pyrazol-3-yl}formamido)-5-(3,3-difluoropiperidin-1-yl)pentanoic acid], the EC50 was determined as 167 nM.
Still for that read-out and setting: the figure for `O=C(O)C[C@H](CCN1CCCC(F)(F)C1)NC(=O)c1cc(-c2ccccc2C(F)(F)F)n(C2CCOCC2)n1` [compound 553, (3S)-5-(3,3-difluoropiperidin-1-yl)-3-{[1-(oxan-4-yl)-5-[2-(trifluoromethyl)phenyl]-1H-pyrazol-3-yl]formamido}pentanoic acid] is 1480 nM; for `O=C(O)C[C@H](CCN1CCCC(F)(F)C1)NC(=O)c1cc(-c2ccc(F)cc2C(F)(F)F)n(C2CCCC2)n1` [compound 554] it is 126 nM.
As for `O=C(O)C[C@H](CCN1CCCC(F)(F)C1)NC(=O)c1cc(-c2ccc(Cl)cc2C(F)(F)F)n(C2CCCC2)n1` [compound 555, (3S)-3-({5-[4-chloro-2-(trifluoromethyl)phenyl]-1-cyclopentyl-1H-pyrazol-3-yl}formamido)-5-(3,3-difluoropiperidin-1-yl)pentanoic acid], the concentration giving a half-maximal response (EC50) was found to be 1570 nM.
Take `O=C(O)C[C@H](CCN1CCCC(F)(F)C1)NC(=O)c1cc(-c2c(Cl)cccc2C(F)(F)F)n(C2CCCC2)n1` [compound 556, (3S)-3-({-[2-chloro-6-(trifluoromethyl)phenyl]-1-cyclopentyl-1H-pyrazol-3-yl}formamido)-5-(3,3-difluoropiperidin-1-yl)pentanoic acid]: the EC50 is more than 10 nM.
On the same count and under the same terms, next, `O=C(O)C[C@H](CCN1CCCC(F)(F)C1)NC(=O)c1cc(-c2ccccc2C(F)(F)F)n(CC2CC2)n1` [compound 557, (3S)-3-{[1-(cyclopropylmethyl)-5-[2-(trifluoromethyl)phenyl]-1H-pyrazol-3-yl]formamido}-5-(3,3-difluoropiperidin-1-yl)pentanoic acid]: 401 nM.
Same read-out and setting: next, `CN(C(=O)[C@@H](CC(=O)O)NC(=O)c1cc(-c2ccccc2C(F)(F)F)n(C2CCCC2)n1)C1CCCCC1` [compound 558, (3R)-3-[cyclohexyl(methyl)carbamoyl]-3-({1-cyclopentyl-5-[2-(trifluoromethyl)phenyl]-1H-pyrazol-3-yl}formamido)propanoic acid]: 1170 nM; `O=C(O)C[C@@H](NC(=O)c1cc(-c2ccccc2C(F)(F)F)n(C2CCCC2)n1)C(=O)NC1CCOCC1` [compound 559, (3R)-3-({1-cyclopentyl-5-[2-(trifluoromethyl)phenyl]-1H-pyrazol-3-yl}formamido)-3-[(oxan-4-yl)carbamoyl]propanoic acid]: 596 nM; `O=C(O)C[C@@H](NC(=O)c1cc(-c2ccccc2C(F)(F)F)n(C2CCCC2)n1)C(=O)Nc1ccc(F)cc1` [compound 560, (3R)-3-({1-cyclopentyl-5-[2-(trifluoromethyl)phenyl]-1H-pyrazol-3-yl}formamido)-3-[(4-fluorophenyl)carbamoyl]propanoic acid]: 738 nM.
In the case of `O=C(N[C@@H]1CC(=O)N(c2ccc(F)cc2)C1=O)c1cc(-c2ccccc2C(F)(F)F)n(C2CCCC2)n1` [compound 563, 1-cyclopentyl-N-[(3R)-1-(4-fluorophenyl)-2,5-dioxopyrrolidin-3-yl]-5-[2-(trifluoromethyl)phenyl]-1H-pyrazole-3-carboxamide], the EC50 is more than 10000 nM.
The same measure, in the same setting: next, `COCCN(C)C(=O)[C@H](CCc1ccccc1)NC(=O)c1nc(-c2ncccc2C(F)(F)F)n(C2CCCC2)n1` [compound 564]: 982 nM; `CC(C)Cn1nc(C(=O)N[C@@H](CCN2CCCC(F)(F)C2)CC(=O)O)cc1-c1ccccc1C(F)(F)F` [compound 565, (3S)-5-(3,3-difluoropiperidin-1-yl)-3-{[1-(2-methylpropyl)-5-[2-(trifluoromethyl)phenyl]-1H-pyrazol-3-yl]formamido}pentanoic acid]: 544 nM.

The values are drawn from patent US11535630B2, “Apelin receptor (APJ) agonists and uses thereof” (Research Triangle Institute, priority 2015, dated 2022).
